Data on 9 molecules can be found in US10435389B2, “Octahydrocyclopenta[c]pyrrole allosteric inhibitors of SHP2” (Krouzon Pharmaceuticals, Inc., priority 2017, dated 2019).

Each structure is given as a SMILES string. Structures can show the parent of a compound that is named as a salt.

The assay deals with T1, human recombinant SHP2 (Homo sapiens, UniProt Q06124).
T1 sequence (Q06124 1-593): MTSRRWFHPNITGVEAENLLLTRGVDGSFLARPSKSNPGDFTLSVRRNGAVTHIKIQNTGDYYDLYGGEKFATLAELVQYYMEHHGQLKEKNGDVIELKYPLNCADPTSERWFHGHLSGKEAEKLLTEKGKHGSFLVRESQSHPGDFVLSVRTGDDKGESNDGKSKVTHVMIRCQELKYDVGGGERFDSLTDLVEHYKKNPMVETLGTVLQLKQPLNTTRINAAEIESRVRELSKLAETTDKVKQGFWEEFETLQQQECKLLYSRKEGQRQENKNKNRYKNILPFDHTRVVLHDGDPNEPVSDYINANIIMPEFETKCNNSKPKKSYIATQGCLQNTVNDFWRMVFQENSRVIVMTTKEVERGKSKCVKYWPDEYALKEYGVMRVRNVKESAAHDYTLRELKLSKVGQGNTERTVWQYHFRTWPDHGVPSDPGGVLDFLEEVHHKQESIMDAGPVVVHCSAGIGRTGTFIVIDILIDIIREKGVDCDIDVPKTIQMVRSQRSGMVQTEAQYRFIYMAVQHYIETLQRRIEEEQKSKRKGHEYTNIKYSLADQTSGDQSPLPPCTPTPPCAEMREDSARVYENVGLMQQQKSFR
Description: Protein Tyrosine Phosphatase (PTP) assay and IC50 measurements of inhibitors (DiFMUP fluorescence). Conditions: 100 ng/mL human recombinant SHP2, 0.5 μM activating peptide IRS1_pY1172(dPEG8)pY1222, substrate DiFMUP 200 μM, room temperature; read-out: IC50 (SHP2 inhibition). Format: biochemical. Here is the method:
Example E: Protein Tyrosine Phosphatase (PTP) Assay and IC50 Measurements of Inhibitors
The phosphatase activity of SHP2 was monitored using the surrogate substrate DiFMUP in a fluorescence assay format. The phosphatase reactions were performed at room temperature in 96-well black polystyrene plate, flat bottom plate using a final reaction volume of 100 μL with the following assay buffer conditions: 60 mM HEPES, pH 7.2, 75 mM NaCl, 75 mM KCl, 1 mM EDTA, 0.05% Tween-20, 5 mM DTT.
To determine the IC50 of a compound, an eight-point dose response curve was generated in duplicate. Compounds were incubated at concentrations ranging from 0 μM to 10 μM with 100 ng/mL of human recombinant SHP2 and 0.5 μM of activating peptide IRS1_pY1172(dPEG8)pY1222 (sequence H2N-LN(pY)IDLDLV-(dPEG8)LST(pY)ASINFQK-amide) (SEQ ID NO 1). After 30 min incubation at room temperature (23-27° C.), the surrogate substrate DiFMUP (200 μM) was added to the reaction and incubated at room temperature for 30 min. The fluorescence signal was monitored using a microplate reader (Spectramax M5e, […]) using excitation and emission wavelengths of 340 and 450 nm, respectively. The inhibitor dose-response curves were analyzed using SoftmaxPro v5.2 software.

With `C[C@]1(N)C[C@H]2CN(c3ncc(-c4cccc(Cl)c4Cl)c(N)n3)C[C@H]2C1` [Example 11, (3aR,5r,6aS)-2-(4-amino-5-(2,3-dichlorophenyl)pyrimidin-2-yl)-5-methyloctahydrocyclopenta[c]pyrrol-5-amine], the IC50 – broadly, the concentration at which inhibition is half-maximal – was under 9 µM.
As for `C[C@]1(N)C[C@H]2CN(c3cnc(-c4cccc(Cl)c4Cl)c(N)n3)C[C@H]2C1` [Example 2, (3aR,5r,6aS)-2-(6-amino-5-(2,3-dichlorophenyl)pyrazin-2-yl)-5-methyloctahydrocyclopenta[c]pyrrol-5-amine], the figure is under 9 µM.
Turning to `C[C@@]1(N)C[C@H]2CN(c3cnc(-c4cccc(Cl)c4Cl)c(N)n3)C[C@H]2C1` [Example 7, (3aR,5s,6aS)-2-(6-amino-5-(2,3-dichlorophenyl)pyrazin-2-yl)-5-methyloctahydrocyclopenta[c]pyrrol-5-amine], the IC50 is under 9 µM.
As for `C[C@]1(N)C[C@H]2CN(c3ncc(-c4cccc(F)c4Cl)c(N)n3)C[C@H]2C1` [Example 12, (3aR,5r,6aS)-2-(4-amino-5-(2-chloro-3-fluorophenyl)pyrimidin-2-yl)-5-methyloctahydrocyclopenta[c]pyrrol-5-amine], the figure is under 9 µM; as for `C[C@]1(N)C[C@H]2CN(c3cnc(-c4cccc(Cl)c4F)c(N)n3)C[C@H]2C1` [Example 5, (3aR,5r,6aS)-2-(6-amino-5-(3-chloro-2-fluorophenyl)pyrazin-2-yl)-5-methyloctahydrocyclopenta[c]pyrrol-5-amine], under 9 µM.
For `Cc1cccc(-c2ncc(N3C[C@@H]4C[C@](C)(N)C[C@@H]4C3)nc2N)c1Cl` [Example 1, (3aR,5r,6aS)-2-(6-amino-5-(2-chloro-3-methylphenyl)pyrazin-2-yl)-5-methyloctahydrocyclopenta[c]pyrrol-5-amine hydrochloride salt], the IC50 was under 9 µM.
With `Cc1cccc(-c2ncc(N3C[C@@H]4C[C@@](C)(N)C[C@@H]4C3)nc2N)c1Cl` [Example 8, (3aR,5s,6aS)-2-(6-amino-5-(2-chloro-3-methylphenyl)pyrazin-2-yl)-5-methyloctahydrocyclopenta[c]pyrrol-5-amine], the IC50 was under 9 µM.
For `C[C@]1(N)C[C@H]2CN(c3cnc(-c4cccnc4Cl)c(N)n3)C[C@H]2C1` [Example 4, (3aR,5r,6aS)-2-(6-amino-5-(2-chloropyridin-3-yl)pyrazin-2-yl)-5-methyloctahydrocyclopenta[c]pyrrol-5-amine], the IC50 was under 9 µM.
In the case of `C[C@]1(N)C[C@H]2CN(c3ncc(-c4cccnc4Cl)c(N)n3)C[C@H]2C1` [Example 13, (3aR,5r,6aS)-2-(4-amino-5-(2-chloropyridin-3-yl)pyrimidin-2-yl)-5-methyloctahydrocyclopenta[c]pyrrol-5-amine], the IC50 is over 10 µM.
